# In PMC8626775, “Anti-schistosomal activities of quinoxaline-containing compounds: From hit identification to lead optimisation” (European Journal of Medicinal Chemistry, 2021):
# Values joined by “and” are separate entries in the source; they are usually repeats but may differ in a detail not shown here. Equal values may be shown once. “Also recorded” adds a separate entry of the source. Read-outs that look alike come from different tables or passages of the source.
# How the values were obtained:
# TK6 cells = assay: Genotoxicity assessment in TK6 cells (micronucleus, ɣH2AX, p53, cell cycle)
# Description: The in vitro micronucleus (MN) assay was employed for the assessment of chromosome damage. Human, p53 competent, lymphoblastoid TK6 cells (Cat. No. 95111735) were used in this study and obtained from the European Collection of Authenticated Cell Cultures (ECACC)). RPMI 1640 (Gibco, Paisley, UK) culture media supplemented with 1% penicillin/streptomycin (100 U/ml Penicillin and 100 μg/ml Streptomycin), 10% heat inactivated horse serum (Gibco, Paisley, UK), 1% L-glutamine (Gibco, Paisley, UK) and hygromycine-B was used for TK6 cell culture. Cells were incubated at 37 °C in a humidified atmosphere of 5% (v/v) CO2.
# S. mansoni schistosomula = S. mansoni schistosomula high-throughput phenotype and motility screen (Roboworm), 72 h; assay type: cell-based, Schistosoma mansoni; settings: for EC50: Schistosoma mansoni
# How it was run: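 Newly transformed schistosomula (S. mansoni PR-1, mechanically transformed cercariae), 120 per well, exposed to compounds at a single concentration or two-fold titrations for 72 h at 37 °C, 5% CO2.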
# [1] = tested on: Adult S. haematobium worms; assay: In vitro screening of S. haematobium adults at 100 nM (WormAssay motility, descriptors, severity score); assay type: cell-based, Schistosoma haematobium; settings: for Effect on S. haematobium adult worms: 5, 24, 48 and 72 h; for SEVERITY SCORES 5 h / SEVERITY SCORES 24 h / SEVERITY SCORES 48 h / SEVERITY SCORES 72 h: max = 4, one line per replicate
# Description: For each species, parasite recovery involved reverse perfusion of the hepatic portal and mesenteric system using DMEM (Fisher Scientific). Parasites were washed six times with Basch 169 medium supplemented with 100 U/ml penicillin and 100 μg/ml streptomycin before manually distributing approximately 5 males per well (on occasion 1 or 2 females might also be present) of a 24-well plate (Corning Costar 3524). […] The next morning, a final concentration of 100 nM compound (in 1 μL DMSO) was added to each well and the final volume made up to 2 ml with Basch 169 medium supplemented with antibiotics and FBS. Each compound was tested in triplicate (except for some instances tested in duplicate). […] The phenotypic characterisation of compound effects focused on male worms due to the greater range of their motility characteristics that include flexing, bending, stretching, sucker walking and adherence, compared to the more sedentary female worms. In addition to descriptors, WormAssay, as adapted for the schistosome, was used to measure average worm motility per well [72, 73].
# [2] = tested on: adult S. japonicum male worms; assay: In vitro screening of S. japonicum adults at 100 nM (WormAssay motility, descriptors, severity score); assay type: cell-based, Schistosoma japonicum; set-up: key to DESCRIPTORS 48 h / DESCRIPTORS 72 h: Dark = dark; S = Slow; S-uncoord = uncoordinated slow movements; O-uncoord = uncoordinated fast movements; On sides = male worms are not adhering to dish with ventral sucker; Shrunk = worms are not flexing and are smaller than usual; Teg damage = outer surface (tegument of the worm) is damaged; Deg= degenerating; D = Dead; settings: for Effect on S. japonicum adult male worms: 5, 24, 48 and 72 h; for SEVERITY SCORES 5 h / SEVERITY SCORES 24 h / SEVERITY SCORES 48 h / SEVERITY SCORES 72 h: max = 4, one line per replicate
# How it was run: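 Adult worms recovered by perfusion, about 5 males per well in Basch 169 medium with antibiotics and FBS. Exposed to 100 nM compound (DMSO), in triplicate or sometimes duplicate. Male phenotypes scored with descriptors and severity score, and average motility per well measured by WormAssay.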
# S. mansoni miracidia = S. mansoni miracidia to sporocyst transformation screen, 48 h; assay type: cell-based, Schistosoma mansoni
# Text: Following hepatic portal vein perfusion of TO mice, experimentally infected 7 weeks previously, the mouse livers were collected to isolate parasite eggs. Briefly, the infected tissues were homogenised in double saline solution (1.7% w/v NaCl) using a Waring blender. The homogenates were passed through a 0.45 μm filter to retain egg material and the resulting filtered solution was collected in a volumetric flask. Miracidia hatching was induced by exposure of eggs to light in artificial river water (e.g. Lepple water). The resulting miracidial suspension was collected, washed with Chernin's balanced salt solution (CBSS) and enumerated prior to being used for in vitro miracidia to sporocyst screens, as previously described. […] Each treatment was set up in duplicate and parasites cultured in CBSS with 1% DMSO were set up as negative controls. After 48 h incubation at 26 °C, dead, fully transformed and partially transformed miracidia were enumerated as previously described [[18],[64], [65], [66]].
# S. mansoni adult worms = assay: S. mansoni adult worm motility screen (WormassayGP2), 72 h; assay type: cell-based, Schistosoma mansoni; settings: for EC50: Schistosoma mansoni
# How it was run: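 Seven-week adult S. mansoni worms, perfused from infected mice, were exposed in duplicate (1–3 pairs/well) to […] compound in 0.5% DMSO for 72 h at 37 °C, 5% CO2. Motility was scored by image-based WormassayGP2, and eggs were counted afterwards.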
# [3] = 72 h, Table 2, average of phenotype and motility EC50, 72 h, read-out: Activity on schistosomula (EC50, μM - 72 h) Average
# [4] = 72 h, Table 2, motility, 72 h, three replicate titrations (0.313–10 μM), read-out: Activity on schistosomula (EC50, μM - 72 h) M
# [5] = 72 h, Table 2, phenotype, 72 h, three replicate titrations (0.313–10 μM), read-out: Activity on schistosomula (EC50, μM - 72 h) P
# [6] = Table 4, Series A, read-out: Anti-schistosomal activity EC50 Schistosomula (μM) Motility
# [7] = Table 4, Series A, read-out: Anti-schistosomal activity EC50 Schistosomula (μM) Phenotype
# [8] = S. japonicum, one line per replicate
# [9] = Table 4, Series A, read-out: Anti-schistosomal activity EC50 Adult (nM) Motility
# [10] = Table 2, 72 h, titrations 0.0095–5 μM, WormassayGP2, read-out: Activity on adult worms (EC50, μM - 72 h) Motility
smiles,measurement,setting,value
"O=[N+]([O-])c1ccc2nc(Nc3ccc(Cl)c(Cl)c3)c(Nc3ccc(Cl)c(Cl)c3)nc2c1 [Compound 22, N^2, N^3-bis(3,4-dichlorophenyl)-6-nitroquinoxaline-2,3-diamine]",Number of micronuclei (MNi) compared to DMSO treated cells,TK6 cells,did not change significantly
same,Cell-cycle analysis,TK6 cells; 2 and 4 μM,G2/M phase arrest
same,Genotoxicity,"TK6 cells; TK6 cells, 0.5, 2 and 4 μM",non-genotoxic; also recorded: does not induce genotoxicity
same,Activity on schistosomula in the primary screen at 10 μM,"S. mansoni schistosomula; 10 μM, 72 h",retained activity
same,EC50,"S. mansoni schistosomula; 72 h, Table 1, 72 h, two dose response titrations (0.313–10 μM), 95% CI in brackets, read-out: Activity on schistosomula (EC50, μM - 72 h) Motility",0.38 µM
same,EC50,"S. mansoni schistosomula; 72 h, Table 1, 72 h, two dose response titrations (0.313–10 μM), 95% CI in brackets, read-out: Activity on schistosomula (EC50, μM - 72 h) Phenotype",0.4 µM
same,EC50,"S. mansoni schistosomula; 72 h, Table 1, mean of phenotype and motility EC50, 72 h, read-out: Activity on schistosomula (EC50, μM - 72 h) Average",0.39 µM
same,EC50,S. mansoni schistosomula; [3],0.44 µM
same,EC50,S. mansoni schistosomula; [4],0.42 µM
same,EC50,S. mansoni schistosomula; [5],0.47 µM
same,EC50,"S. mansoni schistosomula; Table 3, read-out: Anti-schistosomal activity EC50 (μM) Schistosomula Motility",0.42 µM
same,EC50,"S. mansoni schistosomula; Table 3, read-out: Anti-schistosomal activity EC50 (μM) Schistosomula Phenotype",0.47 µM
same,EC50,S. mansoni schistosomula; [6],0.42 µM
same,EC50,S. mansoni schistosomula; [7],0.47 µM
same,EC50,"S. mansoni schistosomula; Table 5, Series C, read-out: Anti-schistosomal activity EC50 Schistosomula (μM) Motility",0.42 µM
same,EC50,"S. mansoni schistosomula; Table 5, Series C, read-out: Anti-schistosomal activity EC50 Schistosomula (μM) Phenotype",0.47 µM
same,EC50,"S. mansoni schistosomula; commercially sourced batch (c22), Fig. S7, read-out: EC50 on schistosomula, original commercially sourced compound",0.61 µM
same,EC50,"S. mansoni schistosomula; re-synthesised batch (rs22), Fig. S7, read-out: EC50 on schistosomula, re-synthesised compound",0.51 µM
same,Effect on S. haematobium adult worms,[1],mainly inactive
same,SEVERITY SCORES 5 h,[1]; S. haematobium,0
same,SEVERITY SCORES 24 h,"[1]; S. haematobium, 24 h",0
same,SEVERITY SCORES 48 h,"[1]; S. haematobium, 48 h",0
same,SEVERITY SCORES 72 h,"[1]; S. haematobium, 72 h",0
same,Effect on S. japonicum adult male worms,[2],decreased motility starting at 48 h
same,SEVERITY SCORES 5 h,[2]; S. japonicum,0
same,SEVERITY SCORES 24 h,"[2]; S. japonicum, 24 h",0
same,SEVERITY SCORES 48 h,[2]; S. japonicum,1 and 2
same,DESCRIPTORS 48 h,[2]; [8],"S and S, on sides"
same,SEVERITY SCORES 72 h,[2]; S. japonicum,2
same,DESCRIPTORS 72 h,[2]; [8],"S+, on sides"
same,Effect on miracidia at 5 μM,S. mansoni miracidia; 5 μM in 1% DMSO,not lethal
same,Reduction of miracidia to sporocyst transformation at 5 μM compared to DMSO,"S. mansoni miracidia; 5 μM, 48 h",50%
same,Miracidial transformation inhibition at 2 and 0.5 μM,"S. mansoni miracidia; 2 and 0.5 μM, 48 h",about 20%
same,Effect on miracidia at 10 and 50 μM,"S. mansoni miracidia; 10 and 50 μM, 48 h",lethal
same,Effect on adult worm motility at 3.15 μM,"S. mansoni adult worms; 3.15 μM, lowest concentration tested",complete cessation of worm mobility; also recorded: completely inhibited
same,Effect on adult worm motility at 12.5 and 6.25 μM,S. mansoni adult worms; 12.5 and 6.25 μM,particularly active
same,EC50,"S. mansoni adult worms; Table 3, read-out: Anti-schistosomal activity EC50 (μM) Adult Motility",0.085 µM
same,EC50,S. mansoni adult worms; [9],0.0847 µM
same,EC50,S. mansoni adult worms; [10],0.0847 µM
same,EC50,"S. mansoni adult worms; commercially sourced batch (c22), Fig. S7, read-out: EC50 on adult worms, original commercially sourced compound",0.0685 µM
same,EC50,"S. mansoni adult worms; re-synthesised batch (rs22), Fig. S7, read-out: EC50 on adult worms, re-synthesised compound",0.0731 µM
"O=[N+]([O-])c1ccc2nc(Nc3cc(C(F)(F)F)ccc3F)c(Nc3cc(C(F)(F)F)ccc3F)nc2c1 [Compound 33, N2, N3-bis(2-fluoro-5-(trifluoromethyl)phenyl)-6-nitroquinoxaline-2,3-diamine]",EC50,S. mansoni schistosomula; [3],0.15 µM
same,EC50,S. mansoni schistosomula; [4],0.15 µM
same,EC50,S. mansoni schistosomula; [5],0.15 µM
same,EC50,"S. mansoni schistosomula; 72 h, Table S7, motility, 95% CI in brackets, read-out: Activity on schistosomula (EC50, µM - 72 h) (95% CI) M",0.15 µM
same,EC50,"S. mansoni schistosomula; 72 h, Table S7, phenotype, 95% CI in brackets, read-out: Activity on schistosomula (EC50, µM - 72 h) (95% CI) P",0.15 µM
same,EC50,S. mansoni schistosomula; [6],0.15 µM
same,EC50,S. mansoni schistosomula; [7],0.15 µM
same,Onset time on S. haematobium,[1],≤ 24 h
same,Effect on S. haematobium adult worms,[1],best activity
same,SEVERITY SCORES 5 h,[1]; S. haematobium,0
same,SEVERITY SCORES 24 h,"[1]; S. haematobium, 24 h",2
same,DESCRIPTORS 24 h,"[1]; S. haematobium, 24 h, one line per replicate","S, on sides; also recorded: S, onsides"
same,SEVERITY SCORES 48 h,"[1]; S. haematobium, 48 h",3
same,DESCRIPTORS 48 h,"[1]; S. haematobium, 48 h, one line per replicate","S, dark on sides"
same,SEVERITY SCORES 72 h,"[1]; S. haematobium, 72 h",4
same,DESCRIPTORS 72 h,"[1]; S. haematobium, 72 h, one line per replicate","S, deg, on sides"
same,Onset time on S. japonicum,[2],≤ 24 h
same,Effect on S. japonicum adult male worms,[2],essentially lethal
same,SEVERITY SCORES 5 h,[2]; S. japonicum,0
same,SEVERITY SCORES 24 h,"[2]; S. japonicum, 24 h",0
same,DESCRIPTORS 24 h,"[2]; S. japonicum, 24 h, one line per replicate","Dark, S, on sides"
same,SEVERITY SCORES 48 h,[2]; S. japonicum,4
same,DESCRIPTORS 48 h,[2]; [8],"Dying, deg"
same,SEVERITY SCORES 72 h,[2]; S. japonicum,4
same,DESCRIPTORS 72 h,[2]; [8],"Dying, D"
same,Effect on miracidia at 0.5 μM,"S. mansoni miracidia; 0.5 μM, lowest concentration tested",parasite death
same,EC50,S. mansoni adult worms; [9],0.0056 µM
same,EC50,S. mansoni adult worms; [10],0.0056 µM
